Columns and labels:
[1] = tested on: zebrafish (Danio rerio; strain AB); experiment: Zebrafish novel tank test (NTT)
Experimental: Adult male and female wild-type zebrafish were treated with the compounds for 20 min in a final volume of 50 ml in a 250-ml treatment beaker one fish at a time. The fish were briefly rinsed in fresh system water, and then immediately transferred to a trapezoidal tank (14.6 cm height x 5.5 cm width x 27.9 cm top length and x 23.6 cm bottom length) filled with 1.5 L system water. The behavior of the fish was monitored for the next 5 min by using the Noldus EthoVision XT system (Wageningen, Netherlands), with the camera placed approximately 1 m from the test tank. The part of the tank filled with water (11.5 cm height) was virtually divided into top, center, and bottom of equal heights (approximately 3.8 cm per segment) for the analysis. The average time spent at the top and bottom portions of the tank was analyzed to determine the anxiety-like behavior of fish. The average total distance travelled and freezing time were calculated to determine the effects of the compounds on the general behavior of fish. Freezing was defined by a complete cessation of movement except for gills and eyes ([Kalueff et al., 2013]). A minimum of 12 fish (6 females and 6 males) per condition were used for the study. The experimenter was blind to the test conditions.
If not, the dose was reduced until no obvious signs of tolerability problems were observed. […] The concentrations were calculated based on the free base molecular weight. Buspirone—a clinical anxiolytic drug used acutely and chronically to investigate the change in the anxiety-like behavior ([Maximino, et al., 2011]; [Maximino, et al., 2013])—was included as a positive control.

[2] = tested on: C57Bl/6 mice; experiment: SmartCube behavioral profiling; format: in vivo; conditions: single i.p. injection, all doses tested
Description: The SmartCube^ ® system is a unique mouse behavior profiling system developed by PsychoGenics Inc. It extracts over 2000 spontaneous and challenge-induced behavioral features during a session ([Alexandrov et al., 2015]; [Alexandrov et al., 2016]). The recorded behavioral parameters are then compared against the behavioral profiles of marketed reference compounds in the database, and the test compounds are classified into known drug classes using PsychoGenics’ proprietary bioinformatics algorithms. In brief, mice were i. p. injected with vehicle or test compound at 10 ml/kg body weight and placed in the SmartCube^ ® arena (24 cm × 25 cm) 15 min later. Spontaneous and stimulus-induced behaviors of mice were recorded using force sensors distributed throughout the arena during a 45-min test session. In addition, three high-resolution video cameras provided a constant 3-dimensional (3D) view of the mouse behavior in the SmartCube^ ® arena throughout the testing period. The bedding was vacuumed, and the arena was cleaned with NOLVASAN^ ® solution between each run. Data from the SmartCube^ ® test were processed using PsychoGenics’ proprietary Computer Vision feature extraction, Bayesian probabilistic density models, and data mining algorithms, trained on a large library of reference compounds with known therapeutic indications to predict the underlying class of each test compound ([Alexandrov et al., 2015]; [Alexandrov et al., 2016]). Twelve mice were tested per condition. Mice were terminated after the completion of the SmartCube^ ® test.
The doses were calculated based on the free base molecular weight. The doses were selected based on the tolerability test results.

[3] = tested on: C57Bl/6 mice; experiment: Tolerability test (body weight, body temperature, passive signs, manipulation responses); conditions: for BT (°C) naïve / Manipulations naïve / Passive naïve: baseline; for BW Day 1 / BW Day 2: mean ± SD
Experimental: In brief, mice were single-housed prior to the test and evaluated for baseline body weight, body temperature, and other parameters. […] On day 1, the mice were i. p. injected with saline (vehicle) or a test compound at 10 ml/kg body weight. Then, body temperature was measured at 15 min, 4 h, and 24 h and body weight on days 1 and 2. Neurological and motor parameters were evaluated at 15 min, 2 h, and 4 h after administration. The list of parameters is provided in Supplementary Figure S1 in Supplementary Material S1.
In addition, within 5 min after the 15-min observation period, mice were placed in open-field chambers for 30 min to determine their general motor activity (distance traveled), ambulatory time, and number of rears. The open-field chambers were made of Plexiglas (27.3 × 27.3 × 20.3 cm; Med Associates Inc, St Albans, VT, United States) surrounded by infrared photobeam sources (16 × 16 × 16 beams). Horizontal activity (distance and time traveled) and vertical activity (number and frequency of rears) were measured by consecutive beam breaks. At the end of each open-field test session, the chambers were thoroughly cleaned with NOLVASAN® solution (Zoetis Services LLC, Parsippany, NJ, United States). Four mice were used per treatment condition. Mice were terminated after completion of the last tolerability observation.
All compounds were diluted in saline, and the pH was adjusted to approximately 7.0 with HCl or NaOH on the day of the experiment. […] The doses were calculated based on the free base molecular weight of the compounds.
For the tolerability tests, passive signs and manipulation responses were analyzed for effects of the treatment by the Kruskal–Wallis test. Body temperature and body weight data were analyzed by two-way repeated measures analysis of variance (ANOVA). The total distance and time traveled and number and frequency of rears in the open-field activity test were analyzed by one-way ANOVA, followed by the Tukey post-hoc test. For the analyses of the zebrafish NTT data, one-way ANOVA was used, followed by Dunnett’s multiple comparison test, if it passed the Shapiro-Wilk normality test. […] An effect was considered significant if p < 0.05. The half maximal effective concentration (EC50) and half-maximal inhibitory concentration (IC50) for the receptor pharmacology and neurotransmitter release assay were determined by using nonlinear regression analysis. Statistical analyses were conducted using GraphPad Prism.

[4] = only at the highest dose tested (10 mg/L)

SMILES: C1=CCC(c2cccnc2)NC1 (racemic) [Anatabine, (±)-Anatabine]
- total distance travelled ([1]; 0.3 and 10 mg/L): reduced
- freezing time ([1]; only at 0.3 mg/L): increased
- time spent at the bottom [1, 4]: reduced the time spent at the bottom
- time spent at the top [1, 4]: increased the time spent at the top
- SmartCube drug classification / behavioral features [2]: no detectable effect
- BT (°C) naïve ([3]; 1 mg/kg group): 37.95 ± 0.13 °C
- Manipulations naïve ([3]; 1 mg/kg group): 0.00 ± 0.00
- Passive naïve ([3]; 1 mg/kg group): 0.00 ± 0.00
- BT (°C) 15min ([3]; 1 mg/kg i.p.): 36.98 ± 0.41 °C
- BT (°C) 4hr ([3]; 1 mg/kg i.p.): 36.65 ± 0.33 °C
- BT (°C) 24hr ([3]; 1 mg/kg i.p.): 36.88 ± 0.43 °C
- Manipulations 15min ([3]; 1 mg/kg i.p.): 0.00 ± 0.00
- Manipulations 2hr ([3]; 1 mg/kg i.p.): 0.00 ± 0.00
- Manipulations 4hr ([3]; 1 mg/kg i.p.): 0.00 ± 0.00
- Passive 15min ([3]; 1 mg/kg i.p.): 0.00 ± 0.00
- Passive 2hr ([3]; 1 mg/kg i.p.): 0.00 ± 0.00
- Passive 4hr ([3]; 1 mg/kg i.p.): 0.00 ± 0.00
- BW Day 1 ([3]; 1 mg/kg i.p.): 24.46 ± 2.30
- BW Day 2 ([3]; 1 mg/kg i.p.): 24.64 ± 2.56
- BT (°C) naïve ([3]; 2 mg/kg group): 37.83 ± 0.15 °C
- Manipulations naïve ([3]; 2 mg/kg group): 0.00 ± 0.00
- Passive naïve ([3]; 2 mg/kg group): 0.00 ± 0.00
- BT (°C) 15min ([3]; 2 mg/kg i.p.): 35.28 ± 0.49 °C
- BT (°C) 4hr ([3]; 2 mg/kg i.p.): 36.48 ± 0.49 °C
- BT (°C) 24hr ([3]; 2 mg/kg i.p.): 36.45 ± 0.30 °C
- Manipulations 15min ([3]; 2 mg/kg i.p.): 0.00 ± 0.00
- Manipulations 2hr ([3]; 2 mg/kg i.p.): 0.00 ± 0.00
- Manipulations 4hr ([3]; 2 mg/kg i.p.): 0.00 ± 0.00
- Passive 15min ([3]; 2 mg/kg i.p.): 0.00 ± 0.00
- Passive 2hr ([3]; 2 mg/kg i.p.): 0.00 ± 0.00
- Passive 4hr ([3]; 2 mg/kg i.p.): 0.00 ± 0.00
- BW Day 1 ([3]; 2 mg/kg i.p.): 24.64 ± 1.69
- BW Day 2 ([3]; 2 mg/kg i.p.): 24.89 ± 2.21
- BT (°C) naïve ([3]; 4 mg/kg group): 38.08 ± 0.05 °C
- Manipulations naïve ([3]; 4 mg/kg group): 0.00 ± 0.00
- Passive naïve ([3]; 4 mg/kg group): 0.00 ± 0.00
- BT (°C) 15min ([3]; 4 mg/kg i.p.): 33.92 ± 0.30 °C
- BT (°C) 4hr ([3]; 4 mg/kg i.p.): 36.30 ± 0.40 °C
- BT (°C) 24hr ([3]; 4 mg/kg i.p.): 36.63 ± 0.17 °C
- Manipulations 15min ([3]; 4 mg/kg i.p.): 0.00 ± 0.00
- Manipulations 2hr ([3]; 4 mg/kg i.p.): 0.00 ± 0.00
- Manipulations 4hr ([3]; 4 mg/kg i.p.): 0.00 ± 0.00
- Passive 15min ([3]; 4 mg/kg i.p.): 0.00 ± 0.00
- Passive 2hr ([3]; 4 mg/kg i.p.): 0.00 ± 0.00
- Passive 4hr ([3]; 4 mg/kg i.p.): 0.00 ± 0.00
- body temperature 15 min after the injection ([3]; 4 mg/kg i.p.): decreased the body temperature
- BW Day 1 ([3]; 4 mg/kg i.p.): 24.73 ± 1.23
- BW Day 2 ([3]; 4 mg/kg i.p.): 24.43 ± 1.13
